Values quoted from earlier work in publication PMC7395068, “The evolution of strategies to minimise the risk of human drug-induced liver injury (DILI) in drug discovery and development” (Archives of Toxicology, 2020).
Where two headings read alike, the source gives them in different places.

Key:
PHH = settings: cited from earlier work
HepG2 cells [1] = settings: In vitro Assay; ref Persson 2013; cited from earlier work
hLiMTs = settings: cited from earlier work
HepG2 cells [2] = settings: cited from earlier work
rBsep = settings: cited from earlier work
[3] = system: primary human hepatocytes, NIH3T3 fibroblasts, BSEP, CYP3A4; settings: In vitro Assay; ref Schadt 2015; cited from earlier work
[4] = cited from earlier work
[5] = cited from earlier work; remark: listed apart in the source
[6] = system: THLE or HepG2 cells, isolated mitochondria, BSEP; settings: In vitro Assay; ref Aleo 2019; cited from earlier work
PHH spheroids = settings: In vitro Assay; ref Vorrink 2018; cited from earlier work
[7] = system: isolated mouse liver mitochondria; settings: In vitro Assay; ref Porceddu 2012; cited from earlier work
[8] = In vitro Assay, ref Proctor 2017
[9] = In vitro Assay, ref O'Brien 2006
[10] = In vitro Assay, ref Dawson 2012

In the case of `CO[C@@]12[C@H](COC(N)=O)C3=C(C(=O)C(C)=C(N)C3=O)N1C[C@@H]1N[C@@H]12` [mitomycin], the “PHH ATP <100uM” value (PHH) is given as “+VE (key: +VE: IC50 threshold of 100 µM)”.
For `COc1ccc2cc([C@H](C)C(=O)O)ccc2c1` [naproxen], the “PHH ATP <100uM” value (PHH; [8]) is given as “-VE”, the Cluser analysis (HepG2 cells [1]) is given as “-VE” and the “Structural based (HCI)” value (HepG2 cells [1]) is given as “-VE”. The “hLiMTs ATP <100uM” value (hLiMTs; [8]) was “-VE” and the “Structural based (HCI)” value (HepG2 cells [2]; [9]) was “-VE”.
In the case of `COC(=O)C1=C(C)NC(C)=C(C(=O)OC)C1c1ccccc1[N+](=O)[O-]` [nifedipine], the “Inhibition of rBsep cutoff<3” value (rBsep) is given as “+VE”.
In the case of `CC(C)(C)NC[C@H](O)COc1ccccc1C1CCCC1` [penbutolol], the “PHH ATP <100uM” value (PHH; [8]) is listed as “+VE (IC50 threshold of 100 µM)”, the “Cellular toxicity (3T3 cells)” value [3] is listed as “-VE” and the “Combined Assay” value [3] is listed as “-VE”. For the same compound, the “GSH adduct HML” value [3] was “-VE”, the Hepatocyte cellular toxicity [3] was “-VE” and the “MitoTox 3T3” value [3] was “-VE”. For the same compound, the “TDI CYP3A4” value [3] was “-VE”, the hBSEP inhibition [3] was “-VE” and the “In vivo DILI” value ([4]; ref Aleo 2019) was “-VE”. The “In vivo DILI” value ([4]; ref Proctor 2017) was “-VE”, the “In vivo DILI” value ([4]; ref Schadt 2015) was “-VE” and the “DILI +VE (5-8), DILI -VE (-4)” value ([5]; ref Chen 2016) was “-VE”. For the same compound, the DILI severity category ([5]; ref Chen 2016) was “vNo-DILI-Concern”, the “hLiMTs ATP <100uM” value (hLiMTs; [8]) was “+VE (IC50 threshold of 100 µM)” and the “Partition Hybrid HRM Score” value [6] was “-VE”. For the same compound, the “Ro2 Hybrid HRM Score” value [6] was “-VE”.
For `[H]/N=C(/N)N/C(=N/[H])NCCc1ccccc1` [phenformin], the “PHH ATP <100uM” value (PHH; [8]) is given as “+VE (IC50 threshold of 100 µM)”, the “In vivo DILI” value ([4]; ref O'Brien 2006) is given as “-VE” and the “In vivo DILI” value ([4]; ref Proctor 2017) is given as “+VE”. For the same compound, the “hLiMTs ATP <100uM” value (hLiMTs; [8]) was “+VE (IC50 threshold of 100 µM)” and the “Structural based (HCI)” value (HepG2 cells [2]; [9]) was “+VE (lowest HCI endpoint IC50 (or in the absence of dose–response < 100 µM) < 30 × total human plasma exposure levels (Cmax.tot))”.
For `CC(C)NCC(O)COc1cccc2[nH]ccc12` (stereo not drawn) [pindolol], the “hLiMTs ATP <20 x Cmax” value (PHH spheroids) is listed as “-VE”, the “In vivo DILI” value ([4]; ref Vorrink 2018) is listed as “-VE” and the “In vivo DILI” value ([4]; ref Xu 2008) is listed as “-VE”. The “DILI +VE (5-8), DILI -VE (-4)” value ([5]; ref Chen 2016) was “-VE” and the DILI severity category ([5]; ref Chen 2016) was “vNo-DILI-Concern”.
For `O=C(C1CCCCC1)N1CC(=O)N2CCc3ccccc3C2C1` (stereo not drawn) [praziquantel], the “Inhibition of rBsep cutoff<1& cmax u>.2” value (rBsep; [10]) is listed as “-VE”, the “Inhibition of rBsep cutoff<3” value (rBsep; [10]) is listed as “+VE” and the “Structural based (HCI)” value (HepG2 cells [2]; [9]) is listed as “+VE”.
For `OC(CCN1CCCC1)(c1ccccc1)C1CCCCC1` (stereo not drawn) [procyclidine], the “PHH ATP <100uM” value (PHH) is given as “+VE (key: +VE: IC50 threshold of 100 µM)”, the “In vivo DILI” value ([4]; in vivo) is given as “-VE” and the “DILI +VE (5-8), DILI -VE (-4)” value ([5]; in vivo) is given as “-VE”. The DILI severity category ([5]; in vivo) was “vNo-DILI-Concern” and the “hLiMTs ATP <100uM” value (hLiMTs) was “-VE”.
In the case of `CCN(CC)CCCC(C)Nc1c2ccc(Cl)cc2nc2ccc(OC)cc12` (stereo not drawn) [quinacrine], the “PHH ATP <100uM” value (PHH) is listed as “+VE (key: +VE: IC50 threshold of 100 µM)”, the “In vivo DILI” value ([4]; in vivo) is listed as “+VE” and the “hLiMTs ATP <100uM” value (hLiMTs) is listed as “+VE (key: +VE: IC50 threshold of 100 µM)”. The “Structural based (HCI)” value (HepG2 cells [2]) was “+VE (key: +VE: lowest HCI endpoint IC50 (or in the absence of dose–response < 100 µM) < 30 × total human plasma exposure levels (Cmax.tot))”.
In the case of `CC(C)c1nc(N(C)S(C)(=O)=O)nc(-c2ccc(F)cc2)c1/C=C/[C@@H](O)C[C@@H](O)CC(=O)O` [rosuvastatin], the “PHH ATP <100uM” value (PHH; [8]) is given as “+VE (IC50 threshold of 100 µM)”, the “In vivo DILI” value ([4]; ref O'Brien 2006) is given as “+VE” and the “In vivo DILI” value ([4]; ref Proctor 2017) is given as “+VE”. The “DILI +VE (5-8), DILI -VE (-4)” value ([5]; ref Chen 2016) was “+VE”, the DILI severity category ([5]; ref Chen 2016) was “vLess-DILI-Concern” and the “hLiMTs ATP <100uM” value (hLiMTs; [8]) was “+VE (IC50 threshold of 100 µM)”. For the same compound, the “Structural based (HCI)” value (HepG2 cells [2]; [9]) was “+VE (lowest HCI endpoint IC50 (or in the absence of dose–response < 100 µM) < 30 × total human plasma exposure levels (Cmax.tot))”.
For `CN[C@@H]1[C@H](O)[C@H](NC)[C@H]2O[C@@]3(O)C(=O)C[C@@H](C)O[C@H]3O[C@@H]2[C@H]1O` [spectinomycin], the “PHH ATP <100uM” value (PHH; [8]) is listed as “-VE”, the “in vitro data EC2<=1x Cmax” value [7] is listed as “+VE” and the “in vitro data EC20<=2uM” value [7] is listed as “+VE”. For the same compound, the “In vivo DILI” value ([4]; ref Porceddu 2012) was “+VE”, the “In vivo DILI” value ([4]; ref Proctor 2017) was “+VE” and the “DILI +VE (5-8), DILI -VE (-4)” value ([5]; ref Chen 2016) was “-VE”. The DILI severity category ([5]; ref Chen 2016) was “Ambiguous DILI-concern” and the “hLiMTs ATP <100uM” value (hLiMTs; [8]) was “-VE”.
For `CC(C)(C)c1ccc(C(O)CCCN2CCC(C(O)(c3ccccc3)c3ccccc3)CC2)cc1` (stereo not drawn) [terfenadine], the “hLiMTs ATP <20 x Cmax” value (PHH spheroids) is listed as “-VE”.
For `Cn1c(=O)c2[nH]cnc2n(C)c1=O` [theophylline], the “PHH ATP <100uM” value (PHH) is given as “-VE”, the “Cellular toxicity (3T3 cells)” value [3] is given as “-VE” and the “Combined Assay” value [3] is given as “-VE”. For the same compound, the “GSH adduct HML” value [3] was “-VE”, the Hepatocyte cellular toxicity [3] was “-VE” and the “MitoTox 3T3” value [3] was “-VE”. The “TDI CYP3A4” value [3] was “-VE”, the hBSEP inhibition [3] was “-VE” and the “hLiMTs ATP <100uM” value (hLiMTs) was “-VE”.
In the case of `CC1=C(/C=C/C(C)=C/C=C/C(C)=C/C(=O)O)C(C)(C)CCC1` [tretinoin], the “PHH ATP <100uM” value (PHH; [8]) is given as “-VE”, the “In vivo DILI” value ([4]; ref Proctor 2017) is given as “+VE” and the “DILI +VE (5-8), DILI -VE (-4)” value ([5]; ref Chen 2016) is given as “-VE”. For the same compound, the DILI severity category ([5]; ref Chen 2016) was “Ambiguous DILI-concern” and the “hLiMTs ATP <100uM” value (hLiMTs; [8]) was “+VE (IC50 threshold of 100 µM)”.
